Measurements: patent US20070254956A1, “Medicament for Therapeutic and/or Preventive Treatment of Restenosis or Reocclusion After Vascular Recanalization Operation” (priority 2003, published 2007)

Test system: proliferation of neointima
Experiment: Test for inhibition of proliferation of neointima in a mouse model of femoral arterial angiopathy
Type: in vivo
Conditions: male C57BL/6 mouse, 1 mg/kg/day intraperitoneally for 10 days
Description: As an angiopathy model resulting from a vascular recanalization operation, a treatment was carried out in which 0.015 inch spring wires were implanted into both […] of 20-25 g male C57BL/6 mouse under anesthesia, and placed for 1 minute to extend the arteries. After the operation, the compound represented by the formula (I) was administered 1 mg/kg/day intraperitoneally for 10 days. Blood vessels were extirpated 4 weeks after the operation and histopathologically examined. Influences between the drug administered group and non-administered group on the cross-section ratio of neointima and tunica media (neointima/tunica media) were compared.

O=C(Nc1cc(C(F)(F)F)cc(C(F)(F)F)c1)c1cc(Cl)ccc1O [compound (I)]
cross-section ratio of neointima and tunica media (neointima/tunica media) (wire-injured femoral arteries, vessels examined 4 weeks after operation, non-administered group 2.01±0.15): 1.01±0.27
inhibition of the proliferation of neointima after the angiopathy (4 weeks after operation): strongly inhibited the proliferation of neointima
